Laboratory results from US8541607B2, “Disulfide, sulfide, sulfoxide, and sulfone derivatives of cyclic sugars and uses thereof” (Lacer, S.A., priority 2003, dated 2013).

System: apo E-deficient mouse (OLA129X C57/BL6J)
Test: Atherogenesis in apo E-deficient mouse on standard diet
Type: in vivo
Conditions: 5 mg/Kg/day, 12 weeks
Source text: Preventing and curative effect on atherogenesis of the compounds it is investigated in apo E-deficient mouse fed on standard diet model. Male and female apo E-deficient mouse (OLA129X C57/BL6J) of three months old were fed on standard diet. The control group included 8 males and 7 females mouse, while the treated group consist of 8 males and 7 females mouse. All the animals had similar cholesterol and body weight at the beginning of the experiment. Both the control and the treated groups were studied for 12 weeks. The treated group received 5 mg/Kg/day of the compound (12).
Plasma lipid parameters (total cholesterol, HDL cholesterol and triglycerides) and oxidative stress (measured as 8-iso-prostaglandin F2α levels) were measured at predetermined intervals. After completion of the administration period, the thoracic aorta was isolated and stained to determine the area of the atherosclerotic injuries deposited in the internal wall of the blood vessel in according with the Red Oil method (Lillie, R. D., 1994, Stain Technology, vol. 19, pp 55).

CC(=O)S[C@H]1CO[C@H]2[C@@H]1OC[C@H]2O[N+](=O)[O-] [(12), 2-acetylthio-isosorbide-5-mononitrate]
levels of triglycerides in plasma (in words): decrease
oxidative stress (in words): decrease
HDL-cholesterol, Female (female, control 0.4 ± 0.1, mean ± s.d.): 0.48 ± 0.13 mmol/L
Triglycerides, Female (female, control 1.9 ± 0.6, mean ± s.d.): 1.3 ± 0.2 mmol/L
Total cholesterol, Female (female, control 9.5 ± 2, mean ± s.d.): 11.3 ± 1.5 mmol/L
8-iso-prostaglandin F2α, Female (female, oxidative stress, control 182 ± 19, mean ± s.d.): 99 ± 7 pg/mL
HDL-cholesterol, Male (male, control 0.5 ± 0.15, mean ± s.d.): 0.47 ± 0.15 mmol/L
Triglycerides, Male (male, control 2.6 ± 0.6, mean ± s.d.): 1.5 ± 0.4 mmol/L
Total cholesterol, Male (male, control 14.3 ± 2, mean ± s.d.): 18 ± 3 mmol/L
8-iso-prostaglandin F2α, Male (male, oxidative stress, control 273 ± 19, mean ± s.d.): 101 ± 13 pg/mL
